For test [1], the target named is T1, Peroxisome proliferator-activated receptor alpha (Homo sapiens) (UniProt Q07869).
T1 sequence (whole entry): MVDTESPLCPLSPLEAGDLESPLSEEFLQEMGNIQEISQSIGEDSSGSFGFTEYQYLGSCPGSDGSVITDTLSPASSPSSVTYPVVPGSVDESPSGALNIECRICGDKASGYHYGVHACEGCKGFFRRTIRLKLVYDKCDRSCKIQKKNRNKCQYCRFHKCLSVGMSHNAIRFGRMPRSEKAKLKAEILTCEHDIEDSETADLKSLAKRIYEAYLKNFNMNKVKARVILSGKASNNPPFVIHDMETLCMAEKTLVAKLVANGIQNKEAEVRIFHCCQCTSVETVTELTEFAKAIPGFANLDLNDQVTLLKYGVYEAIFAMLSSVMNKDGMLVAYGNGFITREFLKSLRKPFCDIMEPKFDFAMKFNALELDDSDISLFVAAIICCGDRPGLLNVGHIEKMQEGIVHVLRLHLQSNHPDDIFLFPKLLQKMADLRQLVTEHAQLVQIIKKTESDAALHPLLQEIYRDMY
Put plainly: Binding affinity to GST-tagged human PPARalpha LBD up to 30 uM incubated for 2 to 6 hrs by TR-FRET assay. (In general: Time-resolved FRET reads energy transfer from a long-lived donor to a nearby acceptor.)

For test [2], the species on record is Homo sapiens. Put plainly: Induction of adipogenesis in human MSC at 10 uM incubated for 5 days cotreated with IDX by ELISA. The class given is functional.
Test [3] addresses T2, Peroxisome proliferator-activated receptor delta (Homo sapiens) (UniProt Q03181).
T2 sequence (whole entry): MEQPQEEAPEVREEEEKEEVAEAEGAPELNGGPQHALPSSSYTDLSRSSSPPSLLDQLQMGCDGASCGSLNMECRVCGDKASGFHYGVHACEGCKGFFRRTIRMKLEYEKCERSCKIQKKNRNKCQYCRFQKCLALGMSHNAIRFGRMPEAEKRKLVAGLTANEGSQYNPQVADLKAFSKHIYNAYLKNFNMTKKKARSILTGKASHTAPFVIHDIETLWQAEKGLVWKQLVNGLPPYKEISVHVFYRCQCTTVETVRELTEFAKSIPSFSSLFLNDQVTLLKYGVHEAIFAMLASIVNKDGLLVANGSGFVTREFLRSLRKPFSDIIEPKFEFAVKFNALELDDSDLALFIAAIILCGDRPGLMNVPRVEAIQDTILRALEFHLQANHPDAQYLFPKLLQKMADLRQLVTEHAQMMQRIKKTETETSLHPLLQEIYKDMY
Put plainly: Competitive binding affinity to GST-tagged human PPARdelta LBD at 30 uM incubated for 1 to 6 hrs by TR-FRET assay relative to control.

The target in test [4] is T3, Peroxisome proliferator-activated receptor gamma (Homo sapiens) (UniProt P37231).
T3 sequence (whole entry): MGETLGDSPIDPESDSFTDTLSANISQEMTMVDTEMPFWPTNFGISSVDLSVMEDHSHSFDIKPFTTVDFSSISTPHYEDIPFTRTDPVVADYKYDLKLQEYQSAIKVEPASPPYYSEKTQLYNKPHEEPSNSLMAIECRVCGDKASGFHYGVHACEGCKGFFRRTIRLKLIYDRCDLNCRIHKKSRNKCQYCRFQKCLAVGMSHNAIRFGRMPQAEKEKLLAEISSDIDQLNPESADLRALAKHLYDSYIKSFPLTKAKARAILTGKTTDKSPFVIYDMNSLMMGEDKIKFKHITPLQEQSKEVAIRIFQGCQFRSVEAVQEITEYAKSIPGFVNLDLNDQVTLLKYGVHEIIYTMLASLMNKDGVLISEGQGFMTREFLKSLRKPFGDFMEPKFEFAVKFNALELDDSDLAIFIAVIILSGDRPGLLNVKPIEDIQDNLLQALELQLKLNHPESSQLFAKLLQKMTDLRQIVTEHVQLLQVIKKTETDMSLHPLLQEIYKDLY
The experiment in a line: Competitive binding affinity to GST-tagged human PPARgamma LBD at 30 uM incubated for 1 to 6 hrs by TR-FRET assay relative to control.

Test [5] deals with T4, Peroxisome proliferator-activated receptor gamma (Homo sapiens, UniProt P37231).
T4 sequence (P37231 whole entry): T3 sequence (whole entry)
Put plainly: (§1) Competitive binding affinity to GST-tagged human PPARgamma LBD incubated for 1 to 6 hrs by TR-FRET assay.

The target of test [6] is T5, Peroxisome proliferator-activated receptor delta (Homo sapiens, UniProt Q03181).
T5 sequence (Q03181 whole entry): T2 sequence (whole entry)
The experiment in a line: (§2) Competitive binding affinity to GST-tagged human PPARdelta LBD incubated for 1 to 6 hrs by TR-FRET assay.

Test [7] is described as follows: Induction of adipogenesis in human MSC incubated for 5 days cotreated with IDX by ELISA. The class given is functional. (In general: An ELISA detects its analyte on a solid surface through an enzyme-linked reagent.)
In test [8] the target is T3, Peroxisome proliferator-activated receptor gamma (Homo sapiens). Put plainly: Partial agonist at PPARgamma LBD (unknown origin) assessed as increase in recruitment of coactivator peptide C33 by TR-FRET assay relative to control.
For test [9], the target named is T5, Peroxisome proliferator-activated receptor delta. Put plainly: Antagonist activity at PPARdelta LBD (unknown origin) assessed as increase in recruitment of SMRT ID2 corepressor peptide by TR-FRET assay.
The target is the same in test [10]. The experiment in a line: Antagonist at PPARdelta LBD (unknown origin) assessed as […] in recruitment of coactivator peptide C33 cotreated with PPARdelta agonist GW501516 by TR-FRET assay.
The species entered for test [11] is Homo sapiens. Put plainly: Induction of adipogenesis in human MSC assessed as increase in size of lipid droplets in differentiated adipocytes at 10 uM by Oil Red O staining based inverted microscopic method. In kind it is functional, cell-based.
Test [12] deals with T3, Peroxisome proliferator-activated receptor gamma (Homo sapiens). The description is as §1.
Test [13] deals with T2, Peroxisome proliferator-activated receptor delta (Homo sapiens). The test is described as §2.
Test [14] addresses T3, Peroxisome proliferator-activated receptor gamma (Homo sapiens). Put plainly: Partial agonist at PPARgamma LBD (unknown origin) assessed as inhibition in recruitment of coactivator peptide C33 cotreated with PPARgamma agonist troglitazone by TR-FRET assay.
The species named for test [15] is Homo sapiens. Put plainly: Induction of adipogenesis in human MSC assessed as increase in number of lipid droplets in differentiated adipocytes at 10 uM by Oil Red O staining based inverted microscopic method. In kind it is functional, cell-based.
Test [16] is filed under the species Homo sapiens. Put plainly: Induction of adipogenesis in human MSC at 10 uM incubated for 5 days cotreated with IDX by ELISA relative to control. The class given is functional.

The structures appear in SMILES notation. The source made the active and inactive calls. The calls are words filed in the database; no cut-off is given here.

On to `CNC(=O)[C@H]1S[C@@H](n2cnc3c(NCc4cccc(I)c4)ncnc32)[C@H](O)[C@@H]1O`, for which the outcome in [1] was inactive.

`CNC(=O)[C@H]1[Se][C@@H](n2cnc3c(NCc4cccc(Br)c4)ncnc32)[C@H](O)[C@@H]1O`: in [2], the result was Active. This molecule came in with an Activity in test [3] above 50%. In addition, the outcome in [1] was inactive.

Regarding `CNC(=O)[C@H]1[Se][C@@H](n2cnc3c(NCc4cccc(F)c4)nc(Cl)nc32)[C@H](O)[C@@H]1O`, the outcome in test [2] was Active. In test [3], this molecule registered an Activity above 50%. In addition, in [1], the result was inactive.

As to `CNC(=O)[C@H]1[Se][C@@H](n2cnc3c(NCc4cccc(Cl)c4)nc(Cl)nc32)[C@H](O)[C@@H]1O`, the result in test [2] and in test [4] was Active. In [3], this molecule had an Activity above 50%. Further, the result in test [1] was inactive.

Consider `CNC(=O)[C@H]1S[C@@H](n2cnc3c(NCc4cccc(I)c4)nc(Cl)nc32)[C@H](O)[C@@H]1O`, for which the EC50 in test [5] worked out at 4.64 µM; in [6], 0.0411 µM; in test [7], 20.8 µM; in test [9] it was 16.7 µM; in test [10] it was 10.7 µM. The result in [1] was inactive. In addition, the Activity in test [8] was below 50%.

Regarding `CNC(=O)[C@H]1[Se][C@@H](n2cnc3c(NCc4cccc(I)c4)nc(Cl)nc32)[C@H](O)[C@@H]1O`, the outcome in [11], in [2] and in test [15] was Active. The EC50 in test [5] was 5.31 µM; in test [6], 0.0144 µM; in [7], 12.6 µM; in [9] it was 7.3 µM; in test [10] it was 5.2 µM. In addition, the Activity entry in [12] was “Dose-dependent effect”; in test [13], “Dose-dependent effect”; in [3] it was above 50%; in [4], above 50%; in test [8], below 50%. For the same molecule, the inhibition result in [14] was “Active”. In [1], the outcome was inactive. Moreover, the fold change (FC) in [16] was found to be 3.22.

As for `CNC(=O)[C@H]1[Se][C@@H](n2cnc3c(NCc4ccccc4Cl)ncnc32)[C@H](O)[C@@H]1O`, the outcome in test [1] was inactive.

Regarding `CNC(=O)[C@H]1[Se][C@@H](n2cnc3c(NCc4cccc(I)c4)ncnc32)[C@H](O)[C@@H]1O`, the result in [2] and in test [4] was Active. In addition, the Activity in test [3] was above 50%. Moreover, the result in [1] was inactive.

Take `CNC(=O)[C@H]1O[C@@H](n2cnc3c(NCc4cccc(I)c4)ncnc32)[C@H](O)[C@@H]1O`: in [1], the result was inactive.

For `CNC(=O)[C@H]1[Se][C@@H](n2cnc3c(NC4CCCC4)ncnc32)[C@H](O)[C@@H]1O`, the outcome in test [1] was inactive.

Take `CNC(=O)[C@H]1[Se][C@@H](n2cnc3c(NCc4cccc(F)c4)ncnc32)[C@H](O)[C@@H]1O`: the result in test [1] was inactive.

`CNC(=O)[C@H]1[Se][C@@H](n2cnc3c(NCc4cccc5ccccc45)ncnc32)[C@H](O)[C@@H]1O`: the outcome in test [2] and in [4] was Active. In addition, the result in test [1] was inactive.

Regarding `CNC(=O)[C@H]1O[C@@H](n2cnc3c(NCc4cccc(I)c4)nc(Cl)nc32)[C@H](O)[C@@H]1O` [NAMODENOSON], the EC50 came to 2.94 µM in test [5], 0.191 µM in test [6], 40.6 µM in test [7] and 29.8 µM in [10]. Further, the result in [1] was inactive. In addition, in [8], the Activity is below 50%.

With `CNC(=O)[C@H]1[Se][C@@H](n2cnc3c(NCc4cccc(Br)c4)nc(Cl)nc32)[C@H](O)[C@@H]1O`, the outcome in [2] and in test [4] was Active. This molecule also came in with an Activity in [3] above 50%. In addition, in [1], the result was inactive.

For the molecule `CCc1ccc(CCOc2ccc(CC3SC(=O)NC3=O)cc2)nc1` (stereo unspecified) [PIOGLITAZONE], in test [7], the EC50 worked out at 0.5 µM.

What is called EC50 is the concentration needed to bring the measured effect to its halfway point.

The values above are taken from ChEMBL document CHEMBL4610002, “Selenium bioisosteric replacement of adenosine derivatives promoting adiponectin secretion increases the binding affinity to peroxisome proliferator-activated receptor δ” (Bioorg Med Chem, 2020).
